The values that follow come from patent US20090087417A1, “METHODS FOR PROMOTING DOPAMINERGIC NEURONAL DEVELOPMENT BY USING NG4A-SUBFAMILY AND WNT-LIGANDS” (priority 2002, published 2009).

Common to all, as to format: cell-based, rat
For one assay, the system named is VM cultures. As to the kind of experiment: TuJ1+ neurons and proliferating clusters, proportion dopaminergic, in VM cultures. The protocol: (§1) Ventral mesencephala and cerebral cortices from embryos E13.5-14.5 obtained from timed-mated Sprague-Dawley rats were dissected, mechanically dissociated and plated at a final density of 1×10^5 cells/cm2 on poly-D-lysine coated 12- or 24-well plates in a defined, serum-free medium (N2, consisting of a 1:1 mixture of F12 and DMEM containing insulin (10 ng/ml), transferrin (100 μg/ml), putrescine (100 μM), progesterone (20 nM), selenium (30 nM), glucose (6 mg/ml), and bovine serum albumin (1 mg/ml)). Purified Type 1 astrocytes were obtained from mixed glial cultures derived from the VM or CTX of P1 rats according to a standard protocol (Wagner et al., 1999). After shaking and replating into 12-well plates, astrocytes were grown to confluency in 15% fetal bovine serum-containing media and changed to N2 medium, at which time freshly dissected VM or CTX cells were plated on top of the astrocytes at a density of 1×10^5 cells/cm2. All factors were added once, at the initiation of culture, with the exception of 5-bromodeoxyuridine (BrdU), which was added 4-6 hours prior to fixation. Cultures were maintained in a humidified 5% CO2, 95% air incubator at 37° C. and fixed after given time periods with 4% paraformaldehyde for 45 minutes prior to immunocytochemical analysis.
(§2) Fixed cultures were incubated with one of the following antibodies, diluted appropriately in phosphate-buffered saline (PBS) containing 1% bovine serum albumin and 0.3% Triton-X 100: mouse anti-BrdU, 1:50 (DAKO, Denmark), mouse anti-β-tubulin, Type III (TuJ1), 1:250 (Sigma), mouse anti-TH, 1:1000 (Incstar, USA), rabbit anti-TH, 1:250 (PelFreeze); rabbit anti-Nurr1, 1:2000 (gift from Dr. T. Perlmann, Sweden), rabbit anti-Nurr1, 1:1000 (Santa Cruz, USA) or mouse anti-Nurr1, 1:250 (BD Transduction Laboratories, USA), rabbit anti Adh2 1:4000 (gift from Dr. R. Lindahl, South Carolina). Incubations were either carried out at 4° C. overnight, or at room temperature for 1 hour. Both processes yielded similar results. After washing, cultures were incubated for 1-3 hr with appropriate secondary antibodies (biotinylated 1:500; CY2-, FITC-, or rhodamine-coupled horse-anti-mouse IgG 1:100; or goat-anti-rabbit IgG 1:100; all from Vector, USA), in the same dilution buffer. Brightfield immunostaining was visualized with the Vector Laboratory ABC immunoperoxidase kit, using either NovaRed (red), or AEC (red), SG or 3-3′ dimaminobenzidine tetrahydrochloride (DAB 0.5 mg/ml)/nickel chloride (1.6 mg/ml) (gray/black), or VIP (violet) substrates. Double-staining was performed by sequential single staining as described. The order of staining was only critical for BrdU-double labeling, in which case the BrdU procedure was always performed second. […] Photos were acquired with a Zeiss Axioplan 100M microscope and collected with a Hamamatsu camera C4742-95 (with the QED imaging software).
(§3) Only clearly stained cells were counted as positive cells. Spheres were considered positive if they contained one or more positive cell. Quantitative immunocytochemical data on individual cells represent means and standard errors of counts obtained by a blinded observer from 10-20 non-overlapping fields (cells) or in the entire well (clusters), in each of 3-4 wells per condition from 3-4 independent experiments, unless stated otherwise. For each variable, initial statistical comparisons were performed by a global ANOVA, with multiple factors of dose, time point, treatment and/or region; if significant interactions between treatment and any other variable existed, data were further divided into separate times, doses or regions. Fisher's protected least significant difference was used post hoc to identify specific points at which the treatments differed from controls (or each other) only when significant interactions between factor treatment and other variables occurred. Significance for all tests was assumed at the level of p<0.05. […]

The test system of assay [1] is ventral mesencephalic Nurr1+ neuronal precursors. As to the kind of experiment: Conversion of VM Nurr1+ precursors into Nurr1+/TH+ dopaminergic neurons (double immunostaining). Particulars: VM cultures; control approximately 50%. As for the experimental part:
as §1
(§4) B1A fibroblast lines were cotransfected with the mFz8CRD-IgG/pRK5 and the pIRES puro 2 (Clontech, BD Bioscience, Erembodegem, Belgium) plasmids, using Lipofectamine Plus reagent (Invitrogen, Lidingo, Sweden) according to the instruction of the manufacturer. Upon selection for puromycin resistance (1 μg/ml Sigma, Stockholm, Sweden), clones were isolated and expanded. A clone overexpressing Fz8CRD 700× (real time RT-PCR analysis) was identified. Harvesting and partial purification of Fz8CRD conditioned media were performed as described previously. In all the blocking experiments performed, the Fz8CRD and B1A control partial purified conditioned medias were used at a final concentration of 125-250 μg/ml. […]
Only clearly stained cells were counted as positive cells. […]

In assay [2] the test system is E14.5 ventral mesencephalic (VM) cultures. As to the kind of experiment: Proliferating clusters containing TH+ neurons in VM cultures. The following applies: 10 units, 7 days in vitro. As for the experimental part:
as §1, with “All factors were added once, at the initiation of culture, with the exception of 5-bromodeoxyuridine (BrdU), which was added 4-6 hours prior to fixation. Cultures were maintained in a humidified 5% CO2, 95% air incubator at 37° C. and fixed after given time periods with 4% paraformaldehyde for 45 minutes prior to immunocytochemical analysis.” left out
Only clearly stained cells were counted as positive cells. […] Quantitative immunocytochemical data on individual cells represent means and standard errors of counts obtained by a blinded observer from 10-20 non-overlapping fields (cells) or in the entire well (clusters), in each of 3-4 wells per condition from 3-4 independent experiments, unless stated otherwise. […]

Assay [3] concerns VM precursor cultures / Nurr1+ precursor cells. Description: BrdU incorporation (proliferation) in VM precursor cultures. The protocol:
as §1, §2, §3
(Uptake of a labelled nucleoside into DNA is a usual measure of proliferation.)

The test system of assay [4] is E14.5 ventral mesencephalic precursor cultures. Description: Number of TH+ neurons in E14.5 ventral mesencephalic precursor cultures. The following applies: increasing concentrations of partially purified Wnt, 3 days. The protocol: as §1
B1A fibroblast lines stably overexpressing hemagglutanin-tagged Wnt-1a, 3a, or 5a (Shimizu H., 1997) were grown in standard complete media (DMEM+10% FBS) supplemented with 100 ug/ml G-418. For collection of conditioned media, cells were replated at low density in complete media and allowed to reach 50-75% confluency, at which point cells were washed and media was replaced with serum-free N2 (with 10 μM sodium butyrate) for 24 hours. Conditioned media from sister flasks was then harvested, pooled as lots and stored at −80° C. for up to 2 months. When compared to fresh CM, no loss of activity was observed when using this collection and storage routine. T1A CM was harvested using a similar procedure, with the exception that media was collected after 3 days in vitro.
For concentration, individual lots of CM were thawed at room temperature, divided into 80 ml aliquots, loaded onto Centricon-Plus 80 columns (Millipore) and concentrated via centrifugation according to the manufacturers instructions. Following concentration, aliquots were re-pooled and frozen at −80 C after a sample was taken for determination of protein content and Western blot analysis. In brief, 20 ug of protein was loaded onto a 10% polyacrylamide mini-gel and run under denaturing conditions at 150 V for approximately 30 minutes. After dry electroblot transfer onto PVDF membranes (Hybond P, Amersham Pharmacia Biotech, Upsalla, Sweden) and pre-incubation for 30 minutes in a blocking buffer consisting of 3% bovine serum albumin in Tris-Buffered Saline with […] Triton-X 100 (TBST), blots were incubated with mouse anti-hemagglutinin (Babco) diluted 1:1000 in TBST overnight at 4 C. After washing, blots were incubated with alkaline phosphatase-coupled goat anti-mouse IgG (Santa Cruz) diluted 1:1000 in TBST for 1 hour at room temperature. Blots were visualized using the Amersham ECF reagent and blue fluorescence quantitated using a Molecular Devices Storm 840 phosphoimager.
as §4

The subject of assay [5] is E13.5 primary cultures from the cerebral cortex. Description: Induction of TH in Nurr1+ E13.5 cerebral cortex primary cultures. The following applies: Wnt ligands or co-culture with P1 astrocytes. The protocol:
as §1, §2
Only clearly stained cells were counted as positive cells. Spheres were considered positive if they contained one or more positive cell. Quantitative immunocytochemical data on individual cells represent means and standard errors of counts obtained by a blinded observer from 10-20 non-overlapping fields (cells) or in the entire well (clusters), in each of 3-4 wells per condition from 3-4 independent experiments, unless stated otherwise. […]

Regarding Wnt-3a, the “proportion of VM clusters containing dopaminergic neurons” value in the assay with VM cultures (FIG. 3e) is “less than 10%”. Besides, the “total number of TuJ1+ neurons” value with VM cultures (FIG. 3f) is recorded as “did not increase”. For the same substance, the “proportion of TH+ (dopaminergic) neurons” value in the assay on VM cultures (FIG. 3g) was “decreased”. Further, the “proportion of Nurr1 positive cells that expressed TH (Nurr1+/TH+)” value in assay [1] came out at 30%. Moreover, the “increase in the number of clusters containing one or more TH+ neurons” value in assay [2] is given as “not”. Besides, the “increase in Nurr1 and BrdU double positive precursor cells (mitosis in Nurr1+ population)” value in assay [3] (1 day in vitro) is listed as 3 fold. Moreover, in assay [3] (3 days in vitro), the “BrdU incorporation in VM precursor cultures” value was “increased”. Further, in assay [4], the “TH+ cell numbers” value is reported as “no effect at doses up to 100 units”. For the same substance, the “proportion of Nurr1 positive cortical cells that expressed TH” value in assay [5] is recorded as “virtually no Nurr1 positive cortical cells co-expressed TH”.
